Measurements taken from patent US8287934B2, “Use of diacetyl dimer as an aromatic and/or flavouring substance” (Symrise AG, priority 2006, dated 2012).

Legend:
[1] = Stability on heating and in formulations; assay type: physicochemical; conditions: for decomposition when heated: heated at 60° C. to 100° C. for 10 minutes
[2] = Tasting in sweet/salty solution (flavour profile by testers); assay type: in vivo
Procedure: The actions found were evaluated with a scale of from 1 (action scarcely perceptible) to 9 (action highly perceptible).
The 5-acetyl-2,5-dimethyl-2-hydroxy-tetrahydrofuran-3-one from Example 1 (2 ppm diacetyl dimer of formula (I) in aqueous 5 wt. % sucrose or 0.5% sodium chloride solution) was investigated for its flavouring action by 9 testers.
The 2,5-diacetyl-3a,5,6,6a-tetrahydro-6a-hydroxy-2,3a,5-trimethylfuro[2,3-d]-1,3-dioxole from Example 1a (1 ppm diacetyl trimer of formula (II) in aqueous 5 wt. % sucrose or 0.5% sodium chloride solution) was investigated for its flavouring action by 9 testers.
The aromatic and/or flavouring composition containing diacetyl dimer of formula (I) and diacetyl trimer of formula (II) from example (1b) (1 ppm of the composition in aqueous 5 wt. % sucrose or 0.5% sodium chloride solution) was investigated for its flavouring action by 7 testers.
For comparison, a flavour profile of diacetyl (1 ppm in aq. 5% sucrose or 0.5% sodium chloride solution) was produced under otherwise identical conditions: fatty (oily) (5), cream (5), butter (7), milk (4), condensed milk (4), fruity (2), cheesy (2), sweet (4), vanillin (2), intensity (7), impact (7), fullness (7), adhesive (5), soft (6).

[3] = 2 ppm in aqueous 5 wt. % sucrose or 0.5% sodium chloride solution, scale 1 to 9
[4] = 1 ppm in aqueous 5 wt. % sucrose or 0.5% sodium chloride solution, scale 1 (scarcely perceptible) to 9 (highly perceptible)
[5] = 1 ppm in aqueous 5 wt. % sucrose or 0.5% sodium chloride solution, scale 1 to 9
[6] = 1 ppm in aq. 5% sucrose or 0.5% sodium chloride solution, scale 1 to 9

Row | SMILES | decomposition when heated [1] | flavour profile: fatty (oily) [2, 4] | flavour profile: adhesive [2, 5] | flavour profile: butter [2, 5] | flavour profile: cream [2, 5] | flavour profile: fullness [2, 5] | flavour profile: impact [2, 5] | flavour profile: intensity [2, 5] | flavour profile: soft [2, 5] | flavour profile: sweet [2, 5] | flavour profile: vanillin [2, 5] | further results
1 | CC(=O)C1(C)CC(=O)C(C)(O)O1 (racemic) [diacetyl dimer of formula (I), 5-acetyl-2,5-dimethyl-2-hydroxy-tetrahydrofuran-3-one] | does not decompose | – | – | – | – | – | – | – | – | – | – | stability in formulations compared with diacetyl ([1]; nutrition, oral hygiene, luxury product or oral pharmaceutical formulations, in particular acidic or basic pH-value): significantly more stable than diacetyl; flavour profile: cream ([2]; 2 ppm in aqueous 5 wt. % sucrose or 0.5% sodium chloride solution, scale 1 (scarcely perceptible) to 9 (highly perceptible)): 5; flavour profile: butter [2, 3]: 5; flavour profile: caramel [2, 3]: 3; flavour profile: fullness [2, 3]: 6; flavour profile: intensity [2, 3]: 5; flavour profile: soft [2, 3]: 6; flavour profile: sweet [2, 3]: 5; flavour profile: toffee [2, 3]: 4; flavour profile: vanillin [2, 3]: 3
2 | CC(=O)C1(C)CC2(O)OC(C)(C(C)=O)OC2(C)O1 (racemic) [diacetyl trimer of formula (II), 2,5-diacetyl-3a,5,6,6a-tetrahydro-6a-hydroxy-2,3a,5-trimethylfuro[2,3-d]-1,3-dioxole] | does not decompose | 7 | 8 | 8 | 6 | 7 | 7 | 6 | 6 | 6 | 3 | flavour profile: caramel [2, 5]: 4; flavour profile: fresh cheese/quark [2, 5]: 4; flavour profile: toffee [2, 5]: 6
3 | CC(=O)C(C)=O [diacetyl, 2,3-butanedione] | – | 5 | 5 | 7 | 5 | 7 | 7 | 7 | 6 | 4 | 2 | flavour profile: cheesy [2, 6]: 2; flavour profile: condensed milk [2, 6]: 4; flavour profile: fruity [2, 6]: 2; flavour profile: milk [2, 6]: 4
